In ChEMBL document CHEMBL1144115, “Antibacterial diterpenoid acids from Azorella compacta” (1999):
Calls of active or inactive are those of the source. The calls are words filed in the database; no cut-off is given here. Where a SMILES comes first, the peptide text is derived from it. Bridges are numbered along the chain shown (N, C = ends). [ ]: non-standard residue; d: D form. The star is where a group is joined. Ileψ(thiazoline)Cys = CC[C@H](C)[C@H](N)C1=N[C@H](C(=O)*)CS1; dOrn = NCCC[C@@H](N)C(=O)O

Experiments:
Staphylococcus aureus [1] = test: Antibacterial activity against methicillin-susceptible Staphylococcus aureus at 200 ug after 18 hrs by agar diffusion test; assay type: functional; conditions: for zone of inhibition at 200 µg/disc: read-out: IZ
Enterococcus faecium [2] = test: Antibacterial activity against vancomycin-resistant Enterococcus faecium at 200 ug after 18 hrs by agar diffusion test; assay type: functional; conditions: for zone of inhibition at 200 µg/disc: read-out: IZ
Staphylococcus aureus [3] = test: Antibacterial activity against methicillin-resistant Staphylococcus aureus at 200 ug after 18 hrs by agar diffusion test; assay type: functional; conditions: for zone of inhibition at 200 µg/disc: read-out: IZ
Escherichia coli [4] = test: Antibacterial activity against Escherichia coli BAS849 mutant at 200 ug after 18 hrs by agar diffusion test; assay type: functional; conditions: for zone of inhibition at 200 µg/disc: read-out: IZ
Candida albicans = test: Antimicrobial activity against Candida albicans at 200 ug after 18 hrs by agar diffusion test; assay type: functional, organism-based
Enterococcus faecium [5] = test: Antibacterial activity against vancomycin-resistant Enterococcus faecium at 10 ug after 18 hrs by agar diffusion test; assay type: functional; conditions: read-out: IZ
Staphylococcus aureus [6] = test: Antibacterial activity against methicillin-resistant Staphylococcus aureus at 30 ug after 18 hrs by agar diffusion test; assay type: functional; conditions: read-out: IZ
Staphylococcus aureus [7] = test: Antibacterial activity against methicillin-susceptible Staphylococcus aureus at 30 ug after 18 hrs by agar diffusion test; assay type: functional; conditions: read-out: IZ
Escherichia coli [8] = test: Antibacterial activity against Escherichia coli BAS849 mutant at 30 ug after 18 hrs by agar diffusion test; assay type: functional; conditions: read-out: IZ

## CC1=CC(=O)[C@H]2[C@@H]3CC[C@H](C(C)C)[C@@]3(C(=O)O)CC[C@@]2(C)CC1=O
Staphylococcus aureus [1]
  zone of inhibition at 200 µg/disc: 8 mm
Enterococcus faecium [2]
  zone of inhibition at 200 µg/disc: 8 mm
Staphylococcus aureus [3]
  zone of inhibition at 200 µg/disc: 8 mm
Escherichia coli [4]
  zone of inhibition at 200 µg/disc: 8 mm
Candida albicans
  Activity: inactive

## CC[C@H](C)[C@H](N)C1=N[C@H](C(=O)N[C@@H](CC(C)C)C(=O)N[C@H](CCC(=O)O)C(=O)N[C@H](C(=O)N[C@H]2CCCCNC(=O)[C@H](CC(N)=O)NC(=O)[C@@H](CC(=O)O)NC(=O)[C@H](Cc3cnc[nH]3)NC(=O)[C@@H](Cc3ccccc3)NC(=O)[C@H]([C@@H](C)CC)NC(=O)[C@@H](CCCN)NC2=O)[C@@H](C)CC)CS1 [BACITRACIN] ({Ileψ(thiazoline)Cys}-L[dE]IK[dOrn]I[dF]H[dD]N; lactam 4-C)
Enterococcus faecium [5]
  zone of inhibition at 10 µg/disc: 16 mm

## CN[C@H](CC(C)C)C(=O)N[C@H]1C(=O)N[C@@H](CC(N)=O)C(=O)N[C@H]2C(=O)N[C@H]3C(=O)N[C@H](C(=O)N[C@H](C(=O)O)c4cc(O)cc(O)c4-c4cc3ccc4O)[C@H](O)c3ccc(c(Cl)c3)Oc3cc2cc(c3O[C@@H]2O[C@H](CO)[C@@H](O)[C@H](O)[C@H]2O[C@H]2C[C@](C)(N)[C@H](O)[C@H](C)O2)Oc2ccc(cc2Cl)[C@H]1O [VANCOMYCIN]
Staphylococcus aureus [6]
  zone of inhibition at 30 µg/disc: 16 mm
Staphylococcus aureus [7]
  zone of inhibition at 30 µg/disc: 16 mm

## CC1=CC[C@]2(C)CC[C@]3(C(=O)O)[C@@H](C(C)C)CC[C@H]3[C@@H]2C=C1
Staphylococcus aureus [1]
  Activity: inactive
Enterococcus faecium [2]
  Activity: inactive
Staphylococcus aureus [3]
  Activity: inactive
Escherichia coli [4]
  Activity: inactive
Candida albicans
  Activity: inactive

## CO[C@@]1(NC(=O)Cc2cccs2)C(=O)N2C(C(=O)O)=C(COC(N)=O)CS[C@@H]21 [CEFOXITIN]
Escherichia coli [8]
  zone of inhibition at 30 µg/disc: 16 mm

## CC1=CC(=O)[C@H]2[C@@H]3CC[C@H](C(C)C)[C@@]3(C(=O)O)CC[C@@]2(C)C=C1
Staphylococcus aureus [1]
  zone of inhibition at 200 µg/disc: 8 mm
Enterococcus faecium [2]
  zone of inhibition at 200 µg/disc: 8 mm
Staphylococcus aureus [3]
  zone of inhibition at 200 µg/disc: 8 mm
Escherichia coli [4]
  zone of inhibition at 200 µg/disc: 8 mm
Candida albicans
  Activity: inactive

## CC(C)[C@H]1CC[C@H]2[C@@H]3C=C[C@](C)(O)CC[C@]3(C)CC[C@]12C(=O)O
Staphylococcus aureus [1]
  Activity: inactive
Enterococcus faecium [2]
  Activity: inactive
Staphylococcus aureus [3]
  Activity: inactive
Escherichia coli [4]
  Activity: inactive
Candida albicans
  Activity: inactive
